Each structure is given as a SMILES string.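 Step 1: Grow cells in 96-well plates. Step 2: Expose to compound for 48 hours at 5 concentrations. Step 3: Interpolate endpoints linearly; if unreached, use highest concentration. TGI denotes the concentration required for complete inhibition of growth.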

Experiment in all cases: NCI tumour cell line growth inhibition, 48 h
Experiment [1] has as its system DMS 273 small cell lung.
Experiment [2] deals with XF 498 CNS.
Experiment [3] relates to RXF-631 renal.
Experiment [4] concerns HOP-18 NSCLC.
The test system of experiment [5] is KM20L2 colon.
Experiment [6] deals with DLD-1 colon.
The test system of experiment [7] is M19-MEL melanoma.
Experiment [8] has as its system SN12K1 renal.
Experiment [9] relates to P388 leukemia.
The test system of experiment [10] is P388/ADR leukemia.

In the case of `CN(C)c1ccc(/C=C(\C#N)C(=O)c2ccccc2)cc1Br`, the TGI in [1], in experiment [2], in experiment [3], in [4], in experiment [5] and in experiment [6] was above 100 µM throughout.

Regarding `CC(C)C(N=C1CC2CCC1(C(=O)Nc1ccccc1O)C2(C)C)c1ccccc1` (stereo unspecified), the TGI in experiment [1], in experiment [2], in [3], in experiment [4], in experiment [7] and in experiment [5] was above 10 µM each time. Also, in [6], the TGI is above 10 µM.

For `O=C(C#Cc1ccccc1)Nc1ccccc1CC(c1c[nH]c2ccccc12)c1c[nH]c2ccccc12`, the TGI in experiment [1] was 38.8 µM; in experiment [2], 70 µM; in [3], 74.6 µM; in experiment [7], 47.8 µM; in experiment [6] it was above 100 µM.

For `Cn1cnc([N+](=O)[O-])c1Sc1nnc(-c2ccc(Cl)cc2)n1C`, the TGI came out at 36 µM in [1]; 30.9 µM in experiment [3]; 18.1 µM in [4]; 27.5 µM in experiment [7]; 26.3 µM in experiment [6].

For the molecule `COc1ccc(-c2oc(C=Nc3ccccc3)c([N+](=O)[O-])c2-c2ccc(OC)c(OC)c2)cc1OC`, the TGI in experiment [1], in experiment [2], in experiment [7], in experiment [5] and in experiment [6] was above 100 µM in each case.

As to `O=C(Cn1cc(I)c(C(=O)NCC(O)CO)n1)NCC(O)CO` (stereo unspecified), the TGI in [1], in experiment [2], in experiment [4], in experiment [7], in experiment [5] and in experiment [6] was above 100 µM each time.

Consider `CCC(/C(=N/NC(=O)C[N+](C)(C)C)c1ccccc1)C1OC(=O)c2ccccc21` (stereo unspecified), for which the TGI in experiment [1], in experiment [2], in [3], in experiment [7] and in [5] was above 100 µM throughout.

Consider `CCOC1=C2N=C(C(CC)c3ccc(F)cc3)N=C2C(=O)c2ccccc21` (stereo unspecified), for which the TGI was above 72.1 µM in experiment [1]; 40.1 µM in [2]; above 59.4 µM in experiment [7]; 50.7 µM in experiment [5]; above 30.4 µM in experiment [6].

Take `CCN(CC)CCNC(=O)C1COc2ccc(-c3cc(=O)c4ccccc4o3)cc2O1` (stereo unspecified): the TGI in [1] turned out to be 42.3 µM; in experiment [2] it was 37.3 µM; in [4] it was 46.7 µM; in experiment [8], 31.1 µM; in [9], 21.7 µM; in experiment [10] it was 37.1 µM. Also, the TGI in [7] is 32.5 µM; in [5], 39 µM; in [6] it was above 77.7 µM.

Take `O=C1C2Cc3ccccc3CN2C(=O)N1CN1CCCCC1` (stereo unspecified): the TGI in experiment [1], in experiment [2], in experiment [7], in experiment [5] and in experiment [6] was above 100 µM each time.

Turning to `Nc1nc2c(nnn2C2C=C(CO)C(O)C2O)c(=O)[nH]1` (stereo unspecified), the TGI in experiment [1], in experiment [2], in experiment [4], in experiment [7], in [5] and in experiment [6] was above 100 µM in each case.

For the molecule `c1ccc(C2SCc3nc4ccccc4n32)cc1` (stereo unspecified), the TGI in [1] is above 100 µM; in experiment [2], 95.4 µM; in [4], 51.7 µM; in experiment [7] it was above 100 µM; in experiment [5] it was above 100 µM; in experiment [6], above 100 µM.

`CCN1CC2(CO)CCC(OC)C34C5CC6C(OC)CC(O)(C5C6OC)C(O)(C(OC)C23)C14` (stereo unspecified): the TGI is above 375 µM in experiment [1]; above 375 µM in [2]; above 375 µM in experiment [4]; above 375 µM in [8]; above 174 µM in [9]; above 80.8 µM in experiment [10]. Moreover, the TGI was above 375 µM in experiment [7], above 375 µM in [5] and above 59.4 µM in experiment [6].

`C#CCN(Cc1ccc2nc(-c3ccccc3)c(Cl)nc2c1)c1ccc(Cl)c(Cl)c1`: the TGI in experiment [1], in experiment [2], in experiment [4], in [7], in experiment [5] and in experiment [6] was above 100 µM throughout.

For the molecule `Cc1ccc(C2=C(c3ccccc3)C(O)(c3ccccc3)C(c3ccccc3)=C2c2ccc(C)cc2)cc1`, the TGI in experiment [2], in experiment [3], in experiment [4], in experiment [7], in [5] and in experiment [6] was above 100 µM each time.

On to `Cc1nc2cc3[nH]c4ccccc4c(=O)c3cc2s1`, for which the TGI in experiment [1], in [2], in experiment [4], in experiment [7] and in experiment [5] was above 100 µM throughout.

Take `C=C1C(=O)OC2C=C(C)CC3C=C(CCC=C(C)CCC12)C(=O)O3` (stereo unspecified): the TGI in experiment [1] was found to be 145 µM; in experiment [4] it was 78.5 µM; in experiment [8], 123 µM; in [9], 85.1 µM; in experiment [10] it was 93.2 µM; in [7] it was 135 µM. In addition, the results for the TGI in experiment [5] and in experiment [6] were 119 µM and 137 µM, respectively.

With `Nc1ccc2ncc(NCc3ccc(F)cc3)nc2c1`, the TGI in experiment [1] is above 100 µM; in experiment [2] it was 86.1 µM; in [4], above 100 µM; in experiment [7] it was above 100 µM; in experiment [5], above 100 µM; in experiment [6], above 100 µM.

`C#CCN1C(=O)CN2C(Cl)(Cl)C2(c2ccccc2)c2cc(Cl)ccc21` (stereo unspecified): the TGI in experiment [1], in experiment [4], in experiment [7], in [5] and in experiment [6] was above 100 µM in each case.

For `CC(=O)Nc1ccc(S(=O)(=O)Nc2cnc3ccccc3n2)cc1`, the TGI in experiment [1], in experiment [2], in [4], in experiment [7], in experiment [5] and in [6] was above 100 µM in each case.
